For 39 molecules, IC50 results are on record in patent US9206184B2, “Disubstituted benzothienyl-pyrrolotriazines and uses thereof” (BAYER INTELLECTUAL PROPERTY GmbH, priority 2011, dated 2015).

pIC50: −log10 of the molar value. Where a name gives a salt, the structure may show the parent alone.

What is called pIC50 is the negative decadic logarithm of the IC50, by convention in mol/L. A high value points to a small IC50.

Chain of human FGFR-3 (P22607 397-806): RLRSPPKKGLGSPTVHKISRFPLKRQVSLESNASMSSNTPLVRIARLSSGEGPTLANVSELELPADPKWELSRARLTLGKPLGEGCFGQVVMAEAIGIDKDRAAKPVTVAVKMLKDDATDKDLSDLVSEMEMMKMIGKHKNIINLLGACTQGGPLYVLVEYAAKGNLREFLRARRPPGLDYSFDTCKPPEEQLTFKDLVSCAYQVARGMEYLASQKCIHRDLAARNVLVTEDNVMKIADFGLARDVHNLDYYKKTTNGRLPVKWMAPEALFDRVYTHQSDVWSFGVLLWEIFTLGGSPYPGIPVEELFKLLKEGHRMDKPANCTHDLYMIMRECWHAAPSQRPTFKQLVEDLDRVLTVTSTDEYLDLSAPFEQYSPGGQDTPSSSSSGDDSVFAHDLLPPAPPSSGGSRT

One test has as its target human FGFR-3 (Homo sapiens (Human), UniProt P22607). Put plainly: FGFR-3 kinase assay (TR-FRET). It is filed as biochemical. Particulars: 10 μM ATP; 15 min pre-incubation with enzyme; compounds of the invention. On the technique in general: Time-resolved FRET reads energy transfer from a long-lived donor to a nearby acceptor.
Turning to `COc1cc(C)cc2cc(-c3c(CNC4CCC4)c(CN4CCNCC4)n4ncnc(N)c34)sc12` [Example 44, 6-[(Cyclobutylamino)methyl]-5-(7-methoxy-5-methyl-1-benzothiophen-2-yl)-7-(piperazin-1-ylmethyl)pyrrolo[2,1-f][1,2,4]triazin-4-amine trihydrochloride], the pIC50 is 8.21.

`COCc1c(-c2cc3cc(C)cc(OC)c3s2)c2c(N)ncnn2c1CN[C@@H]1CCNC1=O` [Example 4, (3R)-3-({[4-Amino-6-(methoxymethyl)-5-(7-methoxy-5-methyl-1-benzothiophen-2-yl)pyrrolo-[2,1-f][1,2,4]triazin-7-yl]methyl}amino)pyrrolidin-2-one] showed a pIC50 of 7.61.

Consider `CCOCc1c(-c2cc3cc(C)cc(OC)c3s2)c2c(N)ncnn2c1CN1CCNC(=O)C1` [Example 5, 4-{[4-Amino-6-(ethoxymethyl)-5-(7-methoxy-5-methyl-1-benzothiophen-2-yl)pyrrolo[2,1-f]-[1,2,4]triazin-7-yl]methyl}piperazin-2-one], for which the pIC50 is 7.92.

The same test, now with this note: 10 μM ATP; 15 min pre-incubation with enzyme; compounds of the invention; dihydrochloride.
For the molecule `CCOCc1c(-c2cc3cc(C)cc(OC)c3s2)c2c(N)ncnn2c1CN1CCNC(=O)C1` [Example 6, 4-{[4-Amino-6-(ethoxymethyl)-5-(7-methoxy-5-methyl-1-benzothiophen-2-yl)pyrrolo-[2,1-f][1,2,4]triazin-7-yl]methyl}piperazin-2-one dihydrochloride], the pIC50 is 7.55.

The test is the same for the next values; noted with them: 10 μM ATP; comparative prior art compounds, labels are Example No. in WO 2007/061737.
`Nc1nccn2c(C3CCC3)nc(-c3cc4cccc(Cl)c4s3)c12` [Example 233 in WO 2007/061737, reference compound] had a pIC50 of 5.00.

Another test deals with human FGFR-1 (Homo sapiens, UniProt P11362). Put plainly: FGFR-1 high ATP kinase assay (TR-FRET). It is filed as biochemical. Particulars: 2 mM ATP; 15 min pre-incubation with enzyme; compounds of the invention.
Chain of human FGFR-1 (P11362 22-822 limits assumed): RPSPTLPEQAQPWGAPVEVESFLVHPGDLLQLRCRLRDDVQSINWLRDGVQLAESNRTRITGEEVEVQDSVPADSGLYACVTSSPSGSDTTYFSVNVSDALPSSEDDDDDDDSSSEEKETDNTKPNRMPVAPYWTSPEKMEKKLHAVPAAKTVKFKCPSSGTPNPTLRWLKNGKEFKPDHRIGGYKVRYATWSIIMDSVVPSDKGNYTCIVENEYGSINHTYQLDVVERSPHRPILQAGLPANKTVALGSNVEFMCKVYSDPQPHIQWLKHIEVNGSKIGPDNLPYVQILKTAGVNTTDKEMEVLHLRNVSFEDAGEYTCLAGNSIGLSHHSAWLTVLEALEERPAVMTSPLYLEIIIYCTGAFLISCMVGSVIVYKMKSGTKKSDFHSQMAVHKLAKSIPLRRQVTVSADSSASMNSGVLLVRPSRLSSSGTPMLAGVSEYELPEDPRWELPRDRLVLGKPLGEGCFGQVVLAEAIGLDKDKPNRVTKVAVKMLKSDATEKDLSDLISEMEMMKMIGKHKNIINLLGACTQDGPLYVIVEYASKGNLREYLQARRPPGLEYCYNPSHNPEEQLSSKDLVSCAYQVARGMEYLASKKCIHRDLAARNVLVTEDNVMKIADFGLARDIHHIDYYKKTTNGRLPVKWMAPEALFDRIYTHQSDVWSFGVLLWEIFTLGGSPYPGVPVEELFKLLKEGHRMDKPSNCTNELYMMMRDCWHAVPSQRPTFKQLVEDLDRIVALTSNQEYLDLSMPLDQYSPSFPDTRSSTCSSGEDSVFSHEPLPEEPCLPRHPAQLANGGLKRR
In the case of `CCOCc1c(-c2cc3cc(C)cc(OC)c3s2)c2c(N)ncnn2c1C(=O)N1CCCCO1` [Example 112], the pIC50 is 7.38.

`COCc1c(-c2cc3cc(C)cc(OC)c3s2)c2c(N)ncnn2c1CN1CCNCC1` [Example 17, 6-(Methoxymethyl)-5-(7-methoxy-5-methyl-1-benzothiophen-2-yl)-7-(piperazin-1-ylmethyl)pyrrolo[2,1-f][1,2,4]triazin-4-amine formiate] showed a pIC50 of 9.05. Against the preceding molecule, the pIC50 is 1.67 log units higher.

Molecule `COC(=O)COCc1c(-c2cc3cc(C)cc(OC)c3s2)c2c(N)ncnn2c1CN1CCNCC1` [Example 31, Methyl{[4-amino-5-(7-methoxy-5-methyl-1-benzothiophen-2-yl)-7-(piperazin-1-ylmethyl)pyrrolo[2,1-f][1,2,4]triazin-6-yl]methoxy}acetate] showed a pIC50 of 8.82.

In the case of `CCNC(=O)c1c(COCC)c(-c2cc3cc(C)cc(OC)c3s2)c2c(N)ncnn12` [Example 111], the pIC50 was 7.57.

For `COc1cc(C)cc2cc(-c3c(CN4CCNC(=O)C4)c(CO)n4ncnc(N)c34)sc12` [Example 125, 4-{[4-Amino-7-(hydroxymethyl)-5-(7-methoxy-5-methyl-1-benzothiophen-2-yl)pyrrolo[2,1-f]-[1,2,4]triazin-6-yl]methyl}piperazin-2-one], the pIC50 is 8.30. This pIC50 lies 0.73 log units higher than the previous one.

Molecule `CCOCc1c(-c2cc3cc(C)cc(OC)c3s2)c2c(N)ncnn2c1C(N)=O` [Example 109] gave a pIC50 of 8.08.

As for `CCOCc1c(-c2cc3cc(C)cc(OC)c3s2)c2c(N)ncnn2c1CN1CCOCC1` [Example 10, 6-(Ethoxymethyl)-5-(7-methoxy-5-methyl-1-benzothiophen-2-yl)-7-(morpholin-4-ylmethyl)pyrrolo[2,1-f][1,2,4]triazin-4-amine], the pIC50 is 7.90.

`CCOCc1c(-c2cc3cc(C)cc(OC)c3s2)c2c(N)ncnn2c1C(=O)N1CCS(=O)(=O)CC1` [Example 123] gave a pIC50 of 7.60.

Turning to `CCOCc1c(-c2cc3cc(C)cc(OC)c3s2)c2c(N)ncnn2c1CN[C@@H]1CCNC1=O` [Example 8, (3R)-3-({[4-Amino-6-(ethoxymethyl)-5-(7-methoxy-5-methyl-1-benzothiophen-2-yl)pyrrolo-[2,1-f][1,2,4]triazin-7-yl]methyl}amino)pyrrolidin-2-one], the pIC50 is 8.03. Against the preceding molecule, the pIC50 is 0.43 log units higher.

As to `CCOCc1c(-c2cc3cc(C)cc(OC)c3s2)c2c(N)ncnn2c1CN1CC(O)C1` [Example 97], the pIC50 is 7.79.

Regarding `CCOCc1c(-c2cc3cc(C)cc(OC)c3s2)c2c(N)ncnn2c1C(=O)NC` [Example 110], the pIC50 is 7.76.

`CCOCc1c(-c2cc3cc(C)cc(OC)c3s2)c2c(N)ncnn2c1CN1CCNC1=O` [Example 87, 1-{[4-Amino-6-(ethoxymethyl)-5-(7-methoxy-5-methyl-1-benzothiophen-2-yl)pyrrolo[2,1-f]-[1,2,4]triazin-7-yl]methyl}imidazolidin-2-one]: the pIC50 is 7.85.

`COc1cc(C)cc2cc(-c3c(COC(C)C)c(CN4CCNCC4)n4ncnc(N)c34)sc12` [Example 27, 6-(Isopropoxymethyl)-5-(7-methoxy-5-methyl-1-benzothiophen-2-yl)-7-(piperazin-1-ylmethyl)pyrrolo[2,1-f][1,2,4]triazin-4-amine formiate] gave a pIC50 of 8.89. This pIC50 lies 1.04 log units higher than the previous one.

`CCCCOCc1c(-c2cc3cc(C)cc(OC)c3s2)c2c(N)ncnn2c1CN1CCNCC1` [Example 23, 6-(Butoxymethyl)-5-(7-methoxy-5-methyl-1-benzothiophen-2-yl)-7-(piperazin-1-ylmethyl)pyrrolo-[2,1-f][1,2,4]triazin-4-amine formiate] showed a pIC50 of 7.75.

`CCOCc1c(-c2cc3cc(C)cc(OC)c3s2)c2c(N)ncnn2c1CN1CCN(C2CC2)CC1` [Example 100] had a pIC50 of 7.26.

`CCOCc1c(-c2cc3cc(C)cc(OC)c3s2)c2c(N)ncnn2c1CN[C@H]1CCNC1=O` [Example 93, (3S)-3-({[4-Amino-6-(ethoxymethyl)-5-(7-methoxy-5-methyl-1-benzothiophen-2-yl)pyrrolo[2,1-f]-[1,2,4]triazin-7-yl]methyl}amino)pyrrolidin-2-one] had a pIC50 of 8.26.

On to `COc1cc(C)cc2cc(-c3c(CO)c(CN4CCNCC4)n4ncnc(N)c34)sc12` [Example 12, [4-Amino-5-(7-methoxy-5-methyl-1-benzothiophen-2-yl)-7-(piperazin-1-ylmethyl)pyrrolo[2,1-f]-[1,2,4]triazin-6-yl]methanol bis(formiate)], for which the pIC50 is 8.48. This pIC50 lies 0.22 log units higher than the previous one.

For the molecule `CCOCc1c(-c2cc3cc(C)cc(OC)c3s2)c2c(N)ncnn2c1CN1CCC(O)C1` (stereo not drawn) [Example 101], the pIC50 is 7.51.

In turn, `CCN(CC)Cc1c(-c2cc3cc(C)cc(OC)c3s2)c2c(N)ncnn2c1CN1CCNCC1` [Example 43, 6-[(Diethylamino)methyl]-5-(7-methoxy-5-methyl-1-benzothiophen-2-yl)-7-(piperazin-1-ylmethyl)pyrrolo[2,1-f][1,2,4]triazin-4-amine trihydrochloride] showed a pIC50 of 8.07.

The molecule `CCOCc1c(-c2cc3cc(C)cc(OC)c3s2)c2c(N)ncnn2c1C(=O)N1CC(F)(F)C1` [Example 122] gave a pIC50 of 7.72.

On to `CCOCc1c(-c2cc3cc(C)cc(OC)c3s2)c2c(N)ncnn2c1C(=O)NC1CC1` [Example 115], for which the pIC50 was 7.60.

`CNCc1c(-c2cc3cc(C)cc(OC)c3s2)c2c(N)ncnn2c1CN1CCNCC1` [Example 36, 5-(7-Methoxy-5-methyl-1-benzothiophen-2-yl)-6-[(methylamino)methyl]-7-(piperazin-1-ylmethyl)pyrrolo[2,1-f][1,2,4]triazin-4-amine trihydrochloride] had a pIC50 of 8.52.

On to `CCOCc1c(-c2cc3cc(C)cc(OC)c3s2)c2c(N)ncnn2c1CN1CCCCO1` [Example 94], for which the pIC50 is 7.09.

`CCCOCc1c(-c2cc3cc(C)cc(OC)c3s2)c2c(N)ncnn2c1CN1CCNCC1` [Example 24, 5-(7-Methoxy-5-methyl-1-benzothiophen-2-yl)-7-(piperazin-1-ylmethyl)-6-(propoxymethyl)pyrrolo[2,1-f][1,2,4]triazin-4-amine bis(formiate)] gave a pIC50 of 8.89. This pIC50 lies 1.80 log units higher than the previous one.

On to `COCc1c(-c2cc3cccc(OC)c3s2)c2c(N)ncnn2c1CN1CCNC(=O)C1` [Example 88, 4-{[4-Amino-5-(7-methoxy-1-benzothiophen-2-yl)-6-(methoxymethyl)pyrrolo[2,1-f][1,2,4]triazin-7-yl]methyl}piperazin-2-one], for which the pIC50 was 7.10.

As to `CCOCc1c(-c2cc3cc(C)cc(OC)c3s2)c2c(N)ncnn2c1C(=O)N[C@H]1CCNC1=O` [Example 116], the pIC50 is 8.43.

In turn, `CCOCc1c(-c2cc3cc(C)cc(OC)c3s2)c2c(N)ncnn2c1C(=O)N1CCC(O)C1` (stereo not drawn) [Example 118] showed a pIC50 of 8.17. Compared with the last molecule, the pIC50 is 0.26 log units lower.

In turn, `CCOCc1c(-c2cc3cc(C)cc(OC)c3s2)c2c(N)ncnn2c1C(=O)N1CCC(C(N)=O)CC1` [Example 113] had a pIC50 of 7.28.

In turn, `CCOCc1c(-c2cc3cc(C)cc(OC)c3s2)c2c(N)ncnn2c1CN1CCCC1` [Example 96] had a pIC50 of 7.26.

As to `COCc1c(-c2cc3cc(OC)cc(OC)c3s2)c2c(N)ncnn2c1CN1CCNC(=O)C1` [Example 124, 4-{[4-Amino-5-(5,7-dimethoxy-1-benzothiophen-2-yl)-6-(methoxymethyl)pyrrolo[2,1-f][1,2,4]-triazin-7-yl]methyl}piperazin-2-one], the pIC50 was 7.56. Against the preceding molecule, the pIC50 is 0.30 log units higher.

As for `CCOCc1c(-c2cc3cc(C)cc(OC)c3s2)c2c(N)ncnn2c1CN1CNC(=O)C1` [Example 104], the pIC50 is 8.25.

With `CCOCc1c(-c2cc3cc(C)cc(OC)c3s2)c2c(N)ncnn2c1CN1CCNC(=O)C1C` (stereo not drawn) [Example 105], the pIC50 is 8.06.

`COc1cc(C)cc2cc(-c3c(-c4cnco4)c(CN4CCNCC4)n4ncnc(N)c34)sc12` [Example 61, 5-(7-Methoxy-5-methyl-1-benzothiophen-2-yl)-6-(1,3-oxazol-5-yl)-7-(piperazin-1-ylmethyl)pyrrolo[2,1-f][1,2,4]triazin-4-amine trihydrochloride]: the pIC50 is 9.30.

Staying with this test, now noted: 2 mM ATP; 15 min pre-incubation with enzyme; compounds of the invention; dihydrochloride.
For the molecule `CCOCc1c(-c2cc3cc(C)cc(OC)c3s2)c2c(N)ncnn2c1CN[C@@H]1CCNC1=O` [Example 7, (3R)-3-({[4-Amino-6-(ethoxymethyl)-5-(7-methoxy-5-methyl-1-benzothiophen-2-yl)pyrrolo-[2,1-f][1,2,4]triazin-7-yl]methyl}amino)pyrrolidin-2-one dihydrochloride], the pIC50 is 8.38.
